We go through one compound from patent US20180318275A1, “COMBINATION THERAPY USING PI3K INHIBITOR AND MDM2 INHIBITOR” (Novartis AG, priority 2015, published 2018).

Holding throughout (assay type): cell-based
For test [1], the system named is 5 TP53 wild type colorectal cancer cell lines. Description: Cell proliferation over the cell line panel, Example 3. The conditions noted are these: Example 3, panel of 5 lines, 13 nM-10 μM. On the procedure:
To test the effect of the combination of COMPOUND A, COMPOUND B, and COMPOUND C on cell proliferation cells were plated in black 384-well microplates with clear bottom (Matrix/Thermo Scientific, Catalog number 4332) in 50 μL media per well at cell densities between 500 and 1250 cells/well (Table 1 above) and allowed to incubate at 37 degrees, 5% CO2 for 24 h. After 24 h one 384-well plate per cell line was prepared for cell counting by microscopy (see below) without receiving treatment (=‘baseline’). The other cell plates were treated by transferring 25 nL of the 2000× compound from drug master plates using an ATS acoustic liquid dispenser (ECD Biosystems) and resulting in a final 1× concentration. COMPOUND A was used over a final concentration range of 13 nM-10 μM, COMPOUND B was used over a final concentration range of 13 nM-10 μM, and COMPOUND C was used over a final concentration range of 13 nM-10 μM (7 1:3 dilution steps). In order to assess the effect of the triple combination all individual COMPOUNDS (A, B, C), all three pair wise combinations (A+B, A+C, B+C), and the triple combination (A+B+C) were tested in the same experiment. […] Caspase 3/7 induction was measured as a proxy for apoptosis induced by the treatments. Cells were treated for 72 h to 96 h depending on their doubling time (Table 1), and Caspase 3/7 activation was measured every 24 h by microscopy using an InCell Analyzer 2000 (GE Healthcare) equipped with a 4× objective and FITC excitation/emission filters. […] All cells per well/treatment were captured in a single image by fluorescence microscopy using an InCell Analyzer 2000 (GE Healthcare) equipped with a 4× objective and DAPI excitation/emission filters.
Images were analyzed after adapting previously described methods (Horn, Sandmann et al. 2011, Nat. Methods 8(4): 341-346) and using the Bioconductor package EBImage in R (Pau, Fuchs et al. 2010, Bioinformatics 26(7):979-981). Objects in both channels, DAPI (for Hoechst/DNA) and FITC (for Caspase 3/7), were segmented separately by adaptive thresholding and counted. […]

For a further test, the system named is GP2d. Nature of the test: Cell proliferation (cell count by microscopy), Example 3. As to conditions: single agent, 72 h, cell count relative to DMSO, unit (micromolar, top dose 10 μM). On the procedure: (§1) COMPOUNDS A, B and C were dissolved in 100% DMSO (Sigma, Catalog number D2650) at concentrations of 20 mM and stored at −20° C. until use. Compounds were arrayed in drug master plates (Greiner, Catalog number 788876) and serially diluted 3-fold (7 steps) at 2000× concentration.
(§2) To test the effect of the combination of COMPOUND A, COMPOUND B, and COMPOUND C on cell proliferation cells were plated in black 384-well microplates with clear bottom (Matrix/Thermo Scientific, Catalog number 4332) in 50 μL media per well at cell densities between 500 and 1250 cells/well (Table 1 above) and allowed to incubate at 37 degrees, 5% CO2 for 24 h. After 24 h one 384-well plate per cell line was prepared for cell counting by microscopy (see below) without receiving treatment (=‘baseline’). The other cell plates were treated by transferring 25 nL of the 2000× compound from drug master plates using an ATS acoustic liquid dispenser (ECD Biosystems) and resulting in a final 1× concentration. COMPOUND A was used over a final concentration range of 13 nM-10 μM, COMPOUND B was used over a final concentration range of 13 nM-10 μM, and COMPOUND C was used over a final concentration range of 13 nM-10 μM (7 1:3 dilution steps). In order to assess the effect of the triple combination all individual COMPOUNDS (A, B, C), all three pair wise combinations (A+B, A+C, B+C), and the triple combination (A+B+C) were tested in the same experiment. Pair wise combinations and the triple combination were tested at a fixed ratio of 1:1 (for drug pairs) and 1:1:1 (for the drug triple) at each dilution resulting in 7 combination conditions per treatment. […] After compound addition 50 nL of 2 mM CellEvent Caspase-3/7 Green Detection Reagent (ThermoFisher, Catalog number C10423) were added to one of the three replicates using the HP D300 Digital Dispenser (Tecan). Caspase 3/7 induction was measured as a proxy for apoptosis induced by the treatments. Cells were treated for 72 h to 96 h depending on their doubling time (Table 1), and Caspase 3/7 activation was measured every 24 h by microscopy using an InCell Analyzer 2000 (GE Healthcare) equipped with a 4× objective and FITC excitation/emission filters. At the end of the treatment cells were prepared for cell counting by microscopy. Cells were fixed and permeabilised for 45 minutes in 4% PFA (Electron Microscopy Sciences, Catalog number 15714), 0.12% TX-100 (Electron Microscopy Sciences, Catalog number 22140) in PBS (Boston Bioproducts, Catalog number BM-220). After washing cells three times with PBS their DNA was stained for 30 minutes with Hoechst 33342 (ThermoFisher, Catalog number H3570) at a final concentration of 4 μg/mL. Cells were washed three times with PBS and then plates were heat-sealed using a PlateLoc (Agilent Technologies) with aluminum seals (Agilent Technologies, Catalog number 06644-001) and stored at 4° C. until imaging. All cells per well/treatment were captured in a single image by fluorescence microscopy using an InCell Analyzer 2000 (GE Healthcare) equipped with a 4× objective and DAPI excitation/emission filters.
(§3) Images were analyzed after adapting previously described methods (Horn, Sandmann et al. 2011, Nat. Methods 8(4): 341-346) and using the Bioconductor package EBImage in R (Pau, Fuchs et al. 2010, Bioinformatics 26(7):979-981). Objects in both channels, DAPI (for Hoechst/DNA) and FITC (for Caspase 3/7), were segmented separately by adaptive thresholding and counted. A threshold for Caspase 3/7 positive objects was defined manually per cell line after comparing negative controls (DMSO) and positive controls (Staurosporine). By analyzing 17 additional object/nuclei features in the DNA channel (shape and intensity features) debris/fragmented nuclei were identified. To this end per cell line the distributions of the additional features between positive controls (Staurosporine) and negative controls (DMSO) were compared manually. […]

The subject of another test is LoVo. The test is described as above. The conditions noted are these: Homo sapiens, single agent, 96 h, cell count relative to DMSO. On the procedure:
as §1, §2, §3

The subject of the next test is LS-180. The test is described as above. As to conditions: Homo sapiens, LS180; LS-160 (so in the source), single agent, 72 h, cell count relative to DMSO. On the procedure: as §1, §2, §3
In the next test the test system is RKO. Described as above. The conditions noted are these: Homo sapiens, single agent, 72 h, cell count relative to DMSO. On the procedure:
as §1, §2, §3

A further test concerns HCT-116. Described as above. As to conditions: Homo sapiens; HCT-116, single agent, 72 h, cell count relative to DMSO. On the procedure: as §1, §2, §3

As a reminder, the IC50 is the point on the concentration scale where inhibition reaches its midpoint.

Consider `CC1(C)CCC(c2ccc(Cl)cc2)=C(CN2CCN(c3ccc(C(=O)NS(=O)(=O)c4ccc(N[C@H](CCN5CCOCC5)CSc5ccccc5)c(S(=O)(=O)C(F)(F)F)c4)cc3)CC2)C1` [COMPOUND C, 4-[4-[[2-(4-Chlorophenyl)-5,5-dimethyl-1-cyclohexen-1-yl]methyl]-1-piperazinyl]-N-[[4-[[(1R)-3-(4-morpholinyl)-1-[(phenylthio)methyl]propyl]amino]-3-[(trifluoromethyl)sulfonyl]phenyl]sulfonyl]benzamide, reference compound], for which the “Single agent growth inhibition, in words” value in test [1] is given as “no single agent efficacy”. Moreover, the IC50 with GP2d, with LoVo, with LS-180, with RKO and in the test with HCT-116 was above 10 µM throughout.
